Target: Mitogen-activated protein kinase 8 (Homo sapiens, UniProt P45983)
Test: Negative log of inhibitory concentration determined against c-Jun N-terminal kinase (Activity reported against the isolated JNK-1 enzyme)

Sequence of Mitogen-activated protein kinase 8 (P45983 whole entry): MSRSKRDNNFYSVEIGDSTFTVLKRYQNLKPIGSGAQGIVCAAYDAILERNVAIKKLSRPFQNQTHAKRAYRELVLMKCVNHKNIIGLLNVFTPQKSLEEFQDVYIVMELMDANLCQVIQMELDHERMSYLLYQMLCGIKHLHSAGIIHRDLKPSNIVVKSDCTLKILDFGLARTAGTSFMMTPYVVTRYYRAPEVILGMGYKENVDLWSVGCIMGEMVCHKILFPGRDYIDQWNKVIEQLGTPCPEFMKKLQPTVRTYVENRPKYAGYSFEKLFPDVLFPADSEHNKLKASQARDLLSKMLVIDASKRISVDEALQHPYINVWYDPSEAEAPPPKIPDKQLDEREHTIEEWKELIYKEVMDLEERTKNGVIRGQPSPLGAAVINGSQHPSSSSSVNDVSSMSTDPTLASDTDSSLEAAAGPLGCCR

IC50 | SMILES
794 nM | CC(=O)Nc1ccc(CNc2[nH]nc3cccc(Oc4ccc(S(C)(=O)=O)cc4)c23)cc1
1580 nM | O=C(NCc1ccccc1Cl)c1cccnc1Oc1ccccc1F
1260 nM | Clc1cccc(CNc2[nH]nc3cccc(Oc4ccccc4)c23)c1
3980 nM | COc1ccc(Oc2ncccc2C(=O)NCc2ccccc2Cl)cc1
5010 nM | Nc1ccc2[nH]nc(NCc3ccccc3Cl)c2c1Oc1ccccc1
398 nM | COc1ccc(OC)c(CNc2[nH]nc3cccc(Oc4ccc(S(C)(=O)=O)cc4)c23)c1
1580 nM | O=[N+]([O-])c1ccc2[nH]nc(NCc3ccccc3Cl)c2c1Oc1ccccc1
794 nM | Clc1ccc(Cl)c(CNc2[nH]nc3cccc(Oc4ccccc4)c23)c1
501 nM | CC(=O)Nc1ccc(CNc2[nH]nc3cccc(Oc4ccc(F)cc4)c23)cc1
794 nM | COc1ccc(OC)c(CNc2[nH]nc3ccc([N+](=O)[O-])c(Oc4ccccc4)c23)c1
100 nM | COc1ccc(OC)c(CNC(=O)c2cccnc2Oc2ccccc2)c1
6310 nM | C[C@H](NC(=O)c1cccnc1Oc1ccccc1)c1ccccc1
200 nM | COc1ccc(OC)c(CNc2[nH]nc3cccc(Oc4ccc(F)cc4)c23)c1
158 nM | CC(=O)Nc1ccc(CNc2[nH]nc3ccnc(Oc4ccccc4)c23)cc1
126 nM | COc1ccc(OC)c(CNc2[nH]nc3cccc(Oc4ccccc4)c23)c1
794 nM | CC(=O)Nc1ccc(CNc2[nH]nc3cccc(Oc4ccccc4)c23)cc1
15.8 nM | COc1ccc(OC)c(CNc2[nH]nc3ccnc(Oc4ccccc4)c23)c1

Reference: ChEMBL document CHEMBL1140363, “Structure-driven HtL: design and synthesis of novel aminoindazole inhibitors of c-Jun N-terminal kinase activity” (Bioorg Med Chem Lett, 2005)
